# Data from patent publication US6559101B2, “N- (5, 7-dimethoxy [1, 2, 4] triazolo [1, 5-a] pyrimidin-2-yl) arylsulfonamide compounds and their use as herbicides” (Dow AgroSciences LLC, priority 2000, dated 2003).
# Legend:
# Format in all cases: in vivo
# [1] = test system: morningglory (Ipomoea hederacea); assay: Postemergence herbicidal activity; details: scored after 2 weeks, 0 no injury, 100 complete kill
# Procedure: (§1) Seeds of the desired test plant species were planted in Grace-Sierra MetroMix® 306 planting mixture, which typically has a pH of 6.0 to 6.8 and an organic matter content of about 30 percent, in plastic pots with a surface area of 64 square centimeters. When required to ensure good germination and healthy plants, a fungicide treatment and/or other chemical or physical treatment was applied. The plants were grown for 7-21 days in a greenhouse with an approximately 15 hr photoperiod which was maintained at about 23-29° C. during the day and 22-28° C. during the night. Nutrients and water were added on a regular basis and supplemental lighting was provided with overhead metal halide 1000 Watt lamps as necessary. The plants were employed for testing when they reached the first or second true leaf stage. A weighed amount of each test compound, determined by the highest rate to be tested, was placed in a 20 mL glass vial and was dissolved in 4 mL of a 97:3 v/v (volume/volume) mixture of acetone and dimethyl sulfoxide to obtain concentrated stock solutions. […] The concentrated stock solutions obtained were diluted with an aqueous mixture containing acetone, water, iso-propyl alcohol, dimethyl sulfoxide, Atplus 411F crop oil concentrate, and Triton X-155 surfactant (methylenebisdiamyl phenoxy polyethoxy ethanol) in a 48.5:39:10:1.5:1.0:0.02 v/v ratio to obtain spray solutions of known concentration. The solutions containing the highest concentration to be tested were prepared by diluting 2 mL aliquots of the stock solution with 13 mL of the mixture and lower concentrations were prepared by dilution of appropriate smaller portions of the stock solution. Approximately 1.5 mL aliquots of each solution of known concentration were sprayed evenly onto each of the test plant pots using a Devilbiss atomizer driven by compressed air pressure of 2 to 4 psi (140 to 280 kiloPascals) to obtain thorough coverage of each plant. Control plants were sprayed in the same manner with the aqueous mixture. In this test an application rate of 1 ppm results in the application of approximately 1 g/ha. The treated plants and control plants were placed in a greenhouse as described above and watered by sub-irrigation to prevent wash-off of the test compounds. After 2 weeks the condition of the test plants as compared with that of the untreated plants was determined visually and scored on a scale of 0 to 100 percent where 0 corresponds to no injury and 100 corresponds to complete kill.
# [2] = test system: pigweed (Amaranthus retroflexus); assay: Postemergence herbicidal activity; details: scored after 2 weeks, 0 no injury, 100 complete kill
# Procedure: as §1
# wild oats (Avena fatua) [3] = assay: Postemergence herbicidal activity; details: scored after 2 weeks, 0 no injury, 100 complete kill
# Procedure: as §1
# [4] = test system: wild buckwheat (Polygonum convolvulus); assay: Postemergence herbicidal activity; details: scored after 2 weeks, 0 no injury, 100 complete kill
# Procedure: as §1
# [5] = test system: blackgrass (Alopecurus myosuroides); assay: Postemergence herbicidal activity; details: scored after 2 weeks, 0 no injury, 100 complete kill
# Procedure: as §1
# [6] = test system: chickweed (Stellaria media); assay: Postemergence herbicidal activity; details: scored after 2 weeks, 0 no injury, 100 complete kill
# Procedure: as §1
# viola (Viola tricolor) = assay: Postemergence herbicidal activity; details: scored after 2 weeks, 0 no injury, 100 complete kill
# Procedure: as §1
# [7] = test system: cocklebur (Xanthium strumarium); assay: Postemergence herbicidal activity; details: scored after 2 weeks, 0 no injury, 100 complete kill
# Procedure: as §1
# [8] = test system: velvetleaf (Abutilion theophrasti); assay: Postemergence herbicidal activity; details: scored after 2 weeks, 0 no injury, 100 complete kill
# Procedure: as §1
# [9] = test system: Rox orange sorghum (Sorghum bicolor); assay: Postemergence herbicidal activity; details: scored after 2 weeks, 0 no injury, 100 complete kill
# Procedure: as §1
# [10] = test system: giant foxtail (Setaria faberi); assay: Postemergence herbicidal activity; details: scored after 2 weeks, 0 no injury, 100 complete kill
# Procedure: as §1
# [11] = test system: wild poinsettia (Euphorbia heterophylla); assay: Preemergence herbicidal activity; details: scored after 3 weeks, 0 no injury, 100 complete kill or no germination
# Procedure: (§2) The soil matrix was contained in plastic pots with a surface area of 161 square centimeters. When required to ensure good germination and healthy plants, a fungicide treatment and/or other chemical or physical treatment was applied. A weighed amount, determined by the highest rate to be tested, of each test compound was placed in a 20 mL glass vial and was dissolved in 8 mL of a 97:3 v/v (volume/volume) mixture of acetone and dimethyl sulfoxide to obtain concentrated stock solutions. […] The stock solutions obtained were diluted with a 99.9:0.1 mixture of water and Tween® 155 surfactant (ethoxylated sorbitan fatty acid ester) to obtain application solutions of known concentration. The solutions containing the highest concentration to be tested were prepared by diluting 4 mL aliquots of the stock solution with 8.5 mL of the mixture and lower concentrations were prepared by dilution of appropriate smaller portions of the stock solution. A 2.5 mL aliquot of each solution of known concentration was sprayed evenly onto the soil of each seeded pot using a Cornwall 5.0 mL glass syringe fitted with a TeeJet TN-3 hollow cone nozzle to obtain thorough coverage of the soil in each pot. Control pots were sprayed in the same manner with the aqueous mixture. A highest application rate of 4.48 kg/ha is achieved when 50 mg of test compound is employed. The treated pots and control pots were placed in a greenhouse with an approximately 15 hr photoperiod which was maintained at about 23-29° C. during the day and 22-28° C. during the night. Nutrients and water were added on a regular basis and supplemental lighting was provided with overhead metal halide 1000 Watt lamps as necessary. The water was added by top-irrigation. After 3 weeks the condition of the test plants that germinated and grew as compared with that of the untreated plants that germinated and grew was determined visually and scored on a scale of 0 to 100 percent where 0 corresponds to no injury and 100 corresponds to complete kill or no germination.
# [12] = test system: morningglory (Ipomoea hederacea); assay: Preemergence herbicidal activity; details: scored after 3 weeks, 0 no injury, 100 complete kill or no germination
# Procedure: as §2
# [13] = test system: pigweed (Amaranthus retroflexus); assay: Preemergence herbicidal activity; details: scored after 3 weeks, 0 no injury, 100 complete kill or no germination
# Procedure: as §2
# wild oats (Avena fatua) [14] = assay: Preemergence herbicidal activity; details: scored after 3 weeks, 0 no injury, 100 complete kill or no germination
# Procedure: as §2
# [15] = test system: barnyardgrass (Echinochloa crus-galli); assay: Preemergence herbicidal activity; details: scored after 3 weeks, 0 no injury, 100 complete kill or no germination
# Procedure: as §2
# [16] = test system: blackgrass (Alopecurus myosuroides); assay: Preemergence herbicidal activity; details: scored after 3 weeks, 0 no injury, 100 complete kill or no germination
# Procedure: as §2
# [17] = test system: cocklebur (Xanthium strumarium); assay: Preemergence herbicidal activity; details: 17.5 g/Ha; scored after 3 weeks; 0 no injury, 100 complete kill or no germination
# Procedure: as §2
# [18] = test system: lambsquarters (Chenopodium album); assay: Preemergence herbicidal activity; details: scored after 3 weeks, 0 no injury, 100 complete kill or no germination
# Procedure: as §2
# [19] = test system: crabgrass (Digitaria sanguinalis); assay: Preemergence herbicidal activity; details: scored after 3 weeks, 0 no injury, 100 complete kill or no germination
# Procedure: as §2
# [20] = test system: velvetleaf (Abutilion theophrasti); assay: Preemergence herbicidal activity; details: scored after 3 weeks, 0 no injury, 100 complete kill or no germination
# Procedure: as §2
# [21] = test system: Rox orange sorghum (Sorghum bicolor); assay: Preemergence herbicidal activity; details: scored after 3 weeks, 0 no injury, 100 complete kill or no germination
# Procedure: as §2
# [22] = test system: giant foxtail (Setaria faberi); assay: Preemergence herbicidal activity; details: scored after 3 weeks, 0 no injury, 100 complete kill or no germination
# Procedure: as §2
# [23] = test system: lambsquarters (Chenopodium album); assay: Postemergence herbicidal activity; details: 7.8 ppm; scored after 2 weeks; 0 no injury, 100 complete kill
# Procedure: as §1
smiles,measurement,setting,value
COc1cc(OC)n2nc(NS(=O)(=O)c3c(OCC(F)F)cccc3C(F)(F)F)nc2n1 [Compound 8],Postemergence herbicidal activity IPOHE,[1]; 31.3 ppm,95%
same,Postemergence herbicidal activity AMARE,[2]; 31.3 ppm,100%
same,Postemergence herbicidal activity AVEFA,wild oats (Avena fatua) [3]; 31.3 ppm,60%
same,Postemergence herbicidal activity POLCO,[4]; 31.3 ppm,98%
same,Postemergence herbicidal activity ALOMY,[5]; 31.3 ppm,80%
same,Postemergence herbicidal activity STEME,[6]; 31.3 ppm,98%
same,Postemergence herbicidal activity VIOTR,viola (Viola tricolor); 31.3 ppm,85%
same,Postemergence herbicidal activity XANST,[7]; 31.3 ppm,100%
same,Postemergence herbicidal activity ABUTH,[8]; 31.3 ppm,100%
same,Postemergence herbicidal activity SORBI,[9]; 31.3 ppm,80%
same,Postemergence herbicidal activity SETFA,[10]; 31.3 ppm,100%
same,Preemergence herbicidal activity EPHHL,[11]; 17.5 g/Ha,90%
same,Preemergence herbicidal activity IPOHE,[12]; 17.5 g/Ha,90%
same,Preemergence herbicidal activity AMARE,[13]; 17.5 g/Ha,100%
same,Preemergence herbicidal activity AVEFA,wild oats (Avena fatua) [14]; 17.5 g/Ha,30%
same,Preemergence herbicidal activity ECHCG,[15]; 17.5 g/Ha,100%
same,Preemergence herbicidal activity ALOMY,[16]; 17.5 g/Ha,95%
same,Preemergence herbicidal activity XANST,[17],80%
same,Preemergence herbicidal activity CHEAL,[18]; 17.5 g/Ha,100%
same,Preemergence herbicidal activity DIGSA,[19]; 17.5 g/Ha,85%
same,Preemergence herbicidal activity ABUTH,[20]; 17.5 g/Ha,85%
same,Preemergence herbicidal activity SORBI,[21]; 17.5 g/Ha,95%
same,Preemergence herbicidal activity SETFA,[22]; 17.5 g/Ha,100%
CCOc1ccc(C)cc1S(=O)(=O)Nc1nc2nc(OC)cc(OC)n2n1 [Compound 10],Postemergence herbicidal activity IPOHE,[1]; 7.8 ppm,20%
same,Postemergence herbicidal activity AMARE,[2]; 7.8 ppm,95%
same,Postemergence herbicidal activity AVEFA,wild oats (Avena fatua) [3]; 7.8 ppm,90%
same,Postemergence herbicidal activity POLCO,[4]; 7.8 ppm,85%
same,Postemergence herbicidal activity ALOMY,[5]; 7.8 ppm,80%
same,Postemergence herbicidal activity STEME,[6]; 7.8 ppm,85%
same,Postemergence herbicidal activity VIOTR,viola (Viola tricolor); 7.8 ppm,85%
same,Postemergence herbicidal activity XANST,[7]; 7.8 ppm,50%
same,Postemergence herbicidal activity CHEAL,[23],95%
same,Postemergence herbicidal activity ABUTH,[8]; 7.8 ppm,50%
same,Postemergence herbicidal activity SORBI,[9]; 7.8 ppm,85%
same,Postemergence herbicidal activity SETFA,[10]; 7.8 ppm,80%
same,Preemergence herbicidal activity EPHHL,[11]; 35 g/Ha,40%
same,Preemergence herbicidal activity IPOHE,[12]; 35 g/Ha,0%
same,Preemergence herbicidal activity AMARE,[13]; 35 g/Ha,98%
same,Preemergence herbicidal activity AVEFA,wild oats (Avena fatua) [14]; 35 g/Ha,80%
same,Preemergence herbicidal activity ECHCG,[15]; 35 g/Ha,80%
same,Preemergence herbicidal activity ALOMY,[16]; 35 g/Ha,30%
same,Preemergence herbicidal activity CHEAL,[18]; 35 g/Ha,90%
same,Preemergence herbicidal activity DIGSA,[19]; 35 g/Ha,0%
same,Preemergence herbicidal activity ABUTH,[20]; 35 g/Ha,60%
same,Preemergence herbicidal activity SORBI,[21]; 35 g/Ha,100%
same,Preemergence herbicidal activity SETFA,[22]; 35 g/Ha,40%
